Results on 19 compounds are retold here after US8378117B2 (priority 2005, dated 2013).

The term IC50 denotes the concentration that inhibits the measured activity by half.

Read-outs that look alike come from different tables or passages of the source.

The target in one test is T1, CB2 receptor (Homo sapiens, UniProt P34972).
T1 construct: expressed in transfected cells
The test is described as follows: Binding assay for CB2 agonists or inverse agonists (SK-N-MC membranes, [3H]-CP-55,940). The note with it: for CB2 receptor binding percent inhibition: test concentration not stated. The procedure:
(§1) The human CB1 and CB2 receptors were stably expressed in SK-N-MC cells transfected with pcDNA3 CB-1 (human) or pcDNA3 CB-2 (human). The cells were grown in T-180 cell culture flasks under standard cell culture conditions at 37° C. in a 5% CO2 atmosphere. The cells were harvested by trysinization and homogenized in a homogenization buffer (10 mM Tris, 0.2 mM MgCl2, 5 mM KCl, with protease inhibitors aprotinin, leupeptin, pepstatin A and bacitracin) and centrifuged (2000 g). The supernatant was then centrifuged in 2M sucrose (31,300 g) to produce a semi-purified membrane pellet. The pellet was resuspended in homogenization and stored at −80° C.
On the day of the assay, the pellet was thawed on ice and diluted in assay buffer (50 mM Tris-HCl, 5 mM MgCl2, 2.5 mM EDTA, 0.5 mg/mL fatty acid free bovine serum aldumin, pH 7.5). […] The plate was covered and incubated for 90 minutes at 30° C. The contents were then aspirated onto a Packard Unifilter GF/C filter bottom plate prewet with 0.5% polyethyleneimine. The wells of the polypropylene plate were rinsed and aspirated seven times with a 0.9% saline-0.5% Tween 20 solution. The Unifilter plate was dried, a scintillation cocktail was added to each well and the counts representing binding were quantitated in a TopCount scintillation counter.
(§2) For compounds tested, an IC50 binding value was obtained from percent inhibition studies in which various test concentrations were used. The binding value was calculated by linear regression.

In another test the target is T2, CB1 receptor (Homo sapiens, UniProt P21554).
T2 construct: expressed in transfected cells
T2 sequence (P21554 whole entry): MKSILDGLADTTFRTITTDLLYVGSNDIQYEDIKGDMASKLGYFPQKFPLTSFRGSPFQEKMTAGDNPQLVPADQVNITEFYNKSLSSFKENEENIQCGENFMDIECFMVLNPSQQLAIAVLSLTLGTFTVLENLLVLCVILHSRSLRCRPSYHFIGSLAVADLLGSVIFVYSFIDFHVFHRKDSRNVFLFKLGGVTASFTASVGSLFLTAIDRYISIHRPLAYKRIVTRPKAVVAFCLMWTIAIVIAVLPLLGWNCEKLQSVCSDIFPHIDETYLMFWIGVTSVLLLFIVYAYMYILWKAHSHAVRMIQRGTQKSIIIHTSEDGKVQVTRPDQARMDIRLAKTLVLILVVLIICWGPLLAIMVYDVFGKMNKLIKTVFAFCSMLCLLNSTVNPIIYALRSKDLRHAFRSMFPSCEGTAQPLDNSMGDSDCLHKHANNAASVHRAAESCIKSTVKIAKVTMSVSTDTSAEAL
As to the kind of experiment: Binding assay for CB1 agonists or inverse agonists (SK-N-MC membranes, [3H]-CP-55,940). The note with it: for inhibition at 0.5 µM: read-out: CB1 receptor binding percent inhibition, test concentration 0.5 μM (footnote 10); for inhibition at 1 µM: read-out: CB1 receptor binding percent inhibition, test concentration 1 μM (footnote 1). The procedure: as §1
On the day of the assay, the pellet was thawed on ice and diluted in assay buffer (50 mM Tris-HCl, 5 mM MgCl2, 2.5 mM EDTA, 0.5 mg/mL fatty acid free bovine serum aldumin, pH 7.5). The diluted membrane pellet was added with buffer, either a test compound or vehicle standard and the radioligand […] ([…]) to the wells of a 96-well polypropylene plate. Non-specific binding was measured in wells containing WIN 55,212 (10 uM). The plate was covered and incubated for 90 minutes at 30° C. The contents were then aspirated onto a Packard Unifilter GF/C filter bottom plate prewet with 0.5% polyethyleneimine. The wells of the polypropylene plate were rinsed and aspirated seven times with a 0.9% saline-0.5% Tween 20 solution. The Unifilter plate was dried, a scintillation cocktail was added to each well and the counts representing binding were quantitated in a TopCount scintillation counter.
as §2

The mark [1] stands for this setting: Cannabinoid CB1 Receptor Binding IC50, calculated by linear regression from percent inhibition at various test concentrations.

T1 sequence (P34972 whole entry): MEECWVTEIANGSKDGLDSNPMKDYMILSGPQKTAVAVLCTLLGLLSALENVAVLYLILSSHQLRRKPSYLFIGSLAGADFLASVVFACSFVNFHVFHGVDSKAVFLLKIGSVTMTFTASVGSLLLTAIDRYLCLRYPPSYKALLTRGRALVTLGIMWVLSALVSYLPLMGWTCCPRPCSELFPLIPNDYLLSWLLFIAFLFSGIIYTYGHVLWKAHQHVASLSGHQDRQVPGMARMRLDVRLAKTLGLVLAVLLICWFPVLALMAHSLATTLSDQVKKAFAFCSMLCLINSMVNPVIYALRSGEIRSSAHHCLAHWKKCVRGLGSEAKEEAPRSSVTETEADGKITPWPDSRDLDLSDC

In the case of `O=C(N[C@@H]1c2ccccc2C[C@@H]1O)c1nn(C2CCCCC2)c2c1CCCCC2Cc1ccc(F)cc1` (relative stereo) [Cpd 121, (8S*)-1-cyclohexyl-8-(4-fluoro-benzyl)-1,4,5,6,7,8-hexahydro-cycloheptapyrazole-3-carboxylic acid [(1R,2S)-2-hydroxy-indan-1-yl]-amide], the “CB2 receptor binding percent inhibition” value on CB2 receptor was 95%. Moreover, the IC50 on CB1 receptor (setting [1]) was 400 nM. For the same compound, on CB1 receptor, the inhibition at 0.5 µM came out at 70% and the inhibition at 1 µM was found to be 80%.

For the compound `O=C(N[C@@H]1c2ccccc2C[C@@H]1O)c1nn(C2CCCCC2)c2c1CCCCC2Cc1cccc(F)c1` (single isomer, unassigned) [Cpd 115, (8S*)-1-cyclohexyl-8-(3-fluoro-benzyl)-1,4,5,6,7,8-hexahydro-cycloheptapyrazole-3-carboxylic acid [(1R,2S)-2-hydroxy-indan-1-yl]-amide], the “CB2 receptor binding percent inhibition” value on CB2 receptor is 99%. The IC50 at CB1 receptor (setting [1]) is 500 nM. Besides, at CB1 receptor, the inhibition at 0.5 µM is 67%. For the same compound, on CB1 receptor (test concentration 1 μM (footnote 1), 1 µM), the “CB1 receptor binding percent inhibition” value stood at 79%.

Regarding `O=C(N[C@@H](CO)c1ccccc1)c1nn(C2CCCCC2)c2c1CCCCC2Cc1ccc(F)cc1` (stereo in doubt) [Cpd 67, (8S*)-1-cyclohexyl-8-(4-fluoro-benzyl)-1,4,5,6,7,8-hexahydro-cycloheptapyrazole-3-carboxylic acid [(1R)-2-hydroxy-1-phenyl-ethyl]-amide], the “CB2 receptor binding percent inhibition” value on CB2 receptor is recorded as 55%. Moreover, at CB1 receptor, the inhibition at 1 µM is 44%.

For `Cc1ccc(CC2CCCCc3c(C(=O)NC4C5(C)CCC(C5)C4(C)C)nn(-c4ccc(F)cc4)c32)cc1` (stereo not drawn) [Cpd 1, 1-(4-fluoro-phenyl)-8-(4-methyl-benzyl)-1,4,5,6,7,8-hexahydro-cycloheptapyrazole-3-carboxylic acid (1,3,3-trimethyl-bicyclo[2.2.1]hept-2-yl)-amide], the IC50 at CB2 receptor (Cannabinoid CB2 Receptor Binding IC50, calculated by linear regression from percent inhibition at various test concentrations) was 300 nM; on CB1 receptor (setting [1]), 200 nM.

Consider `CC12CCC(C1)C(C)(C)[C@H]2NC(=O)c1nn(C2CCCCC2)c2c1CCCCC2Cc1ccc(Cl)cc1` (stereo partly drawn) [Cpd 2, 8-(4-chloro-benzyl)-1-cyclohexyl-1,4,5,6,7,8-hexahydro-cycloheptapyrazole-3-carboxylic acid [(2S)-1,3,3-trimethyl-bicyclo[2.2.1]hept-2-yl]-amide], for which, at CB2 receptor, the “CB2 receptor binding percent inhibition” value turned out to be 53%. In addition, at CB1 receptor, the inhibition at 1 µM was 21%.

Regarding `CC12CCC(C1)C(C)(C)[C@H]2NC(=O)c1nn(C2CCCCC2)c2c1CCCCC2Cc1cccc(Cl)c1` (stereo partly drawn) [Cpd 4, 8-(3-chloro-benzyl)-1-cyclohexyl-1,4,5,6,7,8-hexahydro-cycloheptapyrazole-3-carboxylic acid [(2S)-1,3,3-trimethyl-bicyclo[2.2.1]hept-2-yl]-amide], at CB2 receptor, the “CB2 receptor binding percent inhibition” value is given as 36%. On CB1 receptor, the inhibition at 1 µM was determined as 51%.

`C[C@H](NC(=O)c1nn(C2CCCCC2)c2c1CCCCC2Cc1ccc(Cl)cc1)c1ccccc1` (stereo partly drawn) [Cpd 5, 8-(4-chloro-benzyl)-1-cyclohexyl-1,4,5,6,7,8-hexahydro-cycloheptapyrazole-3-carboxylic acid [(1S)-1-phenyl-ethyl]-amide]: the “CB2 receptor binding percent inhibition” value on CB2 receptor stood at 34%. For the same compound, the inhibition at 1 µM at CB1 receptor stood at 22%.

Consider `C[C@@H](NC(=O)c1nn(C2CCCCC2)c2c1CCCCC2Cc1ccc(Cl)cc1)c1ccccc1` (stereo partly drawn) [Cpd 6, 8-(4-chloro-benzyl)-1-cyclohexyl-1,4,5,6,7,8-hexahydro-cycloheptapyrazole-3-carboxylic acid [(1R)-1-phenyl-ethyl]-amide], for which the “CB2 receptor binding percent inhibition” value at CB2 receptor came to 4%. Also, on CB1 receptor, the inhibition at 1 µM is 26%.

With `C[C@H](NC(=O)c1nn(C2CCCCC2)c2c1CCCCC2Cc1cccc(Cl)c1)c1ccccc1` (stereo partly drawn) [Cpd 7, 8-(3-chloro-benzyl)-1-cyclohexyl-1,4,5,6,7,8-hexahydro-cycloheptapyrazole-3-carboxylic acid [(1S)-1-phenyl-ethyl]-amide], the “CB2 receptor binding percent inhibition” value at CB2 receptor is given as 12%. Moreover, the 50% inhibitory concentration (IC50) on CB1 receptor (calculated by linear regression from percent inhibition at various test concentrations, read-out: Cannabinoid CB1 Receptor Binding IC50) is 1100 nM. At CB1 receptor, the inhibition at 1 µM turned out to be 68%.

Turning to `O=C(NC12CC3CC(CC1C3)C2)c1nn(C2CCCCC2)c2c1CCCCC2Cc1cccc(Cl)c1` (stereo not drawn) [Cpd 9, 8-(3-chloro-benzyl)-1-cyclohexyl-1,4,5,6,7,8-hexahydro-cycloheptapyrazole-3-carboxylic acid (hexahydro-2,5-methano-pentalen-3a-yl)-amide], on CB2 receptor, the “CB2 receptor binding percent inhibition” value is on record as 4%. The inhibition at 1 µM on CB1 receptor worked out at 18%.

On to `CC(NC(=O)c1nn(C2CCCCC2)c2c1CCCCC2Cc1cccc(Cl)c1)C12CC3CC(CC(C3)C1)C2` (stereo not drawn) [Cpd 10, 8-(3-chloro-benzyl)-1-cyclohexyl-1,4,5,6,7,8-hexahydro-cycloheptapyrazole-3-carboxylic acid (1-adamantan-1-yl-ethyl)-amide], for which, on CB2 receptor, the “CB2 receptor binding percent inhibition” value was found to be 8%. Besides, the inhibition at 1 µM at CB1 receptor was determined as 0%.

Turning to `CC12CCC(C1)C(C)(C)[C@H]2NC(=O)c1nn(C2CCCCC2)c2c1CCCCC2Cc1ccccc1Cl` (stereo partly drawn) [Cpd 11, 8-(2-chloro-benzyl)-1-cyclohexyl-1,4,5,6,7,8-hexahydro-cycloheptapyrazole-3-carboxylic acid [(2S)-1,3,3-trimethyl-bicyclo[2.2.1]hept-2-yl]-amide], the “CB2 receptor binding percent inhibition” value at CB2 receptor worked out at 21%. In addition, the inhibition at 1 µM on CB1 receptor turned out to be 17%.

On to `O=C(NC1C2CC3CC(C2)CC1C3)c1nn(C2CCCCC2)c2c1CCCCC2Cc1cccc(Cl)c1` (stereo not drawn) [Cpd 12, 8-(3-chloro-benzyl)-1-cyclohexyl-1,4,5,6,7,8-hexahydro-cycloheptapyrazole-3-carboxylic acid adamantan-2-ylamide], for which the “CB2 receptor binding percent inhibition” value at CB2 receptor is 31%. In addition, the inhibition at 1 µM at CB1 receptor is 36%.

Consider `O=C(NC1C2CC3CC(C2)CC1C3)c1nn(C2CCCCC2)c2c1CCCCC2Cc1ccccc1Cl` (stereo not drawn) [Cpd 13, 8-(2-chloro-benzyl)-1-cyclohexyl-1,4,5,6,7,8-hexahydro-cycloheptapyrazole-3-carboxylic acid adamantan-2-ylamide], for which the “CB2 receptor binding percent inhibition” value at CB2 receptor amounted to 14%. At CB1 receptor, the inhibition at 1 µM was 0%.

As to `CC12CCC(C1)C(C)(C)[C@H]2NC(=O)c1nn(-c2ccc(Cl)cc2Cl)c2c1CCCCC2Cc1ccc(Cl)cc1` (stereo partly drawn) [Cpd 14, 8-(4-chloro-benzyl)-1-(2,4-dichloro-phenyl)-1,4,5,6,7,8-hexahydro-cycloheptapyrazole-3-carboxylic acid [(2S)-1,3,3-trimethyl-bicyclo[2.2.1]hept-2-yl]-amide], the “CB2 receptor binding percent inhibition” value at CB2 receptor is given as 7%. In addition, the inhibition at 1 µM on CB1 receptor is 29%.

Consider `CC12CCC(C1)C(C)(C)[C@H]2NC(=O)c1nn(-c2ccc(Cl)cc2Cl)c2c1CCCCC2Cc1cccc(Cl)c1` (stereo partly drawn) [Cpd 15, 8-(3-chloro-benzyl)-1-(2,4-dichloro-phenyl)-1,4,5,6,7,8-hexahydro-cycloheptapyrazole-3-carboxylic acid [(2S)-1,3,3-trimethyl-bicyclo[2.2.1]hept-2-yl]-amide], for which the “CB2 receptor binding percent inhibition” value at CB2 receptor was found to be 54%. Besides, at CB1 receptor, the inhibition at 1 µM came to 58%.

As to `O=C(NC1C2CC3CC(C2)CC1C3)c1nn(C2CCCCC2)c2c1CCCCC2Cc1ccc(Cl)cc1` (stereo not drawn) [Cpd 16, 8-(4-chloro-benzyl)-1-cyclohexyl-1,4,5,6,7,8-hexahydro-cycloheptapyrazole-3-carboxylic acid adamantan-2-ylamide], on CB2 receptor, the “CB2 receptor binding percent inhibition” value is on record as 68%. Besides, the inhibition at 1 µM at CB1 receptor is 21%.

Consider `O=C(NC1C2CC3CC(C2)CC1C3)c1nn(-c2ccc(Cl)cc2Cl)c2c1CCCCC2Cc1cccc(Cl)c1` (stereo not drawn) [Cpd 17, 8-(3-chloro-benzyl)-1-(2,4-dichloro-phenyl)-1,4,5,6,7,8-hexahydro-cycloheptapyrazole-3-carboxylic acid adamantan-2-ylamide], for which the “CB2 receptor binding percent inhibition” value on CB2 receptor turned out to be 11%. Further, the inhibition at 1 µM at CB1 receptor was 37%.

Consider `COc1ccc(/C=C2\CCCCc3c(C(=O)N[C@@H]4CCC[C@H]4O)nn(-c4ccc(Cl)cc4Cl)c32)cc1` [Cpd 221, (8E)-1-(2,4-dichloro-phenyl)-8-(4-methoxy-benzylidene)-1,4,5,6,7,8-hexahydro-cycloheptapyrazole-3-carboxylic acid [(1R,2R)-2-hydroxy-cyclopentyl)-amide], for which, on CB2 receptor (test concentration 0.2 μM (footnote 2), read-out: CB2 receptor binding percent inhibition), the inhibition at 0.2 µM was found to be 24%.
